US20080058213A1, “Benzoxazole Compounds” (priority 2004, published 2008)

Experiments:
Assay type in all cases: in vivo
corn [1] = assay: Foliage treatment test for upland field (Test Example 3): phytotoxicity to corn; conditions: foliage treatment at 1.0-2.0 leaf stage of southern crabgrass, examined after 3 weeks
Outline: (§1)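 Crops sown in compost-mixed soil pots, kept in a glasshouse at 25° C. average. Effect scored after 3 weeks versus untreated control on a 0–5 scale (0 normal growth, 5 complete kill).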

rice plant = assay: Weed control test for paddy field (Test Example 1): phytotoxicity to rice plant; conditions: paddy pots, treated at 1.0 leaf stage of barnyard grass, examined after 3 weeks
Source text: (§2) Paddy field soil was filled in 1/10,000 are pots, kneaded with adequate amounts of water and chemical fertilizer, seeded with barnyard grass (Echinochloa crusgalli), Monochoria (Monochoria vaginalis), Japanese bulrush (Scirpus juncoides) and flat sedge (Cyperus serotinus), and further transplanted with 2.0 leaf stage of rice plant. The pots were maintained under the water-filled condition to a depth of 3 cm.
(§3) Wettable powders containing the compounds (1) as identified in Table 1, which were formulated following Production Example 2, were diluted with adequate amount of water and applied to the pots dropwise with pippet at a prescribed dose of the active ingredients per are, at 1.0 leaf stage of the barnyard grass.
(§4) After placing the pots in a glasshouse which was controlled at an average temperature of 25° C. for 3 weeks, herbicidal effect was examined.
Evaluation of phytotoxicity is shown in the following six grades, as compared with the condition of untreated control: • 0: normal growth • 1: little damaged • 2: low damaged • 3: medium damaged • 4: serious damaged • 5: complete killed.

[2] = tested on: common purslane (Portulaca oleracea); assay: Soil treatment test for upland field (Test Example 2): common purslane; conditions: soil treatment before germination, examined after 3 weeks
Outline: (§5)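 Pots of upland soil were seeded and covered, then wettable-powder formulations at the prescribed active-ingredient dose were sprayed onto the soil surface before weed germination, in 15 liters water per are. After 3 weeks in a glasshouse at about 25° C., growth inhibition versus untreated control was scored 0 (<20%) to 5 (100%).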

[3] = tested on: Monochoria (Monochoria vaginalis); assay: Weed control test for paddy field (Test Example 1): Monochoria; conditions: paddy pots, treated at 1.0 leaf stage of barnyard grass, examined after 3 weeks
Source text: as §2, §3, §4
(§6) Evaluation of the herbicidal effect is shown in the following six grades, by comparing the condition of untreated control and growth inhibition (%): • 0: 0%-less than 20% • 1: 20%-less than 40% • 2: 40%-less than 60% • 3: 60%-less than 80% • 4: 80%-less than 100% • 5: 100%.

[4] = tested on: slender amaranth (Amaranthus viridis); assay: Soil treatment test for upland field (Test Example 2): slender amaranth; conditions: soil treatment before germination, examined after 3 weeks
Outline: as §5

wheat [5] = assay: Foliage treatment test for upland field (Test Example 3): phytotoxicity to wheat; conditions: foliage treatment at 1.0-2.0 leaf stage of southern crabgrass, examined after 3 weeks
Outline: as §1

southern crabgrass = assay: Foliage treatment test for upland field (Test Example 3): southern crabgrass; conditions: foliage treatment at 1.0-2.0 leaf stage of southern crabgrass, examined after 3 weeks
Outline: (§7)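 Wettable powders diluted to the prescribed dose and sprayed at 15 L/are at the 1.0-2.0 leaf stage of southern crabgrass on glasshouse-grown plants (25° C average). Effect graded 0-5 after 3 weeks from growth inhibition versus untreated control (0: <20% to 5: 100%).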

[6] = tested on: flat sedge (Cyperus serotinus); assay: Weed control test for paddy field (Test Example 1): flat sedge; conditions: paddy pots, treated at 1.0 leaf stage of barnyard grass, examined after 3 weeks
Source text: as §2, §3, §4, §6

slender amaranth = assay: Foliage treatment test for upland field (Test Example 3): slender amaranth; conditions: foliage treatment at 1.0-2.0 leaf stage of southern crabgrass, examined after 3 weeks
Outline: as §7

[7] = tested on: common lambsquaters (Chenopodium album); assay: Soil treatment test for upland field (Test Example 2): common lambsquaters; conditions: soil treatment before germination, examined after 3 weeks
Outline: as §5

common purslane = assay: Foliage treatment test for upland field (Test Example 3): common purslane; conditions: foliage treatment at 1.0-2.0 leaf stage of southern crabgrass, examined after 3 weeks
Outline: as §7

corn [8] = assay: Soil treatment test for upland field (Test Example 2): phytotoxicity to corn; conditions: soil treatment before germination, examined after 3 weeks
[9] = tested on: southern crabgrass (Digitaria ciliaris); assay: Soil treatment test for upland field (Test Example 2): southern crabgrass; conditions: soil treatment before germination, examined after 3 weeks
Outline: as §5

[10] = tested on: Japanese bulrush (Scirpus juncoides); assay: Weed control test for paddy field (Test Example 1): Japanese bulrush; conditions: paddy pots, treated at 1.0 leaf stage of barnyard grass, examined after 3 weeks
Source text: as §2, §3, §4, §6

soybean [11] = assay: Soil treatment test for upland field (Test Example 2): phytotoxicity to soybean; conditions: soil treatment before germination, examined after 3 weeks
[12] = tested on: barnyard grass (Echinochloa crusgalli); assay: Weed control test for paddy field (Test Example 1): barnyard grass; conditions: paddy pots, treated at 1.0 leaf stage of barnyard grass, examined after 3 weeks
Source text: as §2, §3, §4, §6

common lambsquaters = assay: Foliage treatment test for upland field (Test Example 3): common lambsquaters; conditions: foliage treatment at 1.0-2.0 leaf stage of southern crabgrass, examined after 3 weeks
Outline: as §7

wheat [13] = assay: Soil treatment test for upland field (Test Example 2): phytotoxicity to wheat; conditions: soil treatment before germination, examined after 3 weeks
velvetleaf = assay: Foliage treatment test for upland field (Test Example 3): velvetleaf; conditions: foliage treatment at 1.0-2.0 leaf stage of southern crabgrass, examined after 3 weeks
Outline: as §7

soybean [14] = assay: Foliage treatment test for upland field (Test Example 3): phytotoxicity to soybean; conditions: foliage treatment at 1.0-2.0 leaf stage of southern crabgrass, examined after 3 weeks
Outline: as §1

[15] = tested on: velvetleaf (Abutilon theophrasti); assay: Soil treatment test for upland field (Test Example 2): velvetleaf; conditions: soil treatment before germination, examined after 3 weeks
Outline: as §5

COCC(=Cc1cccc(C(F)(F)F)c1)c1nc2cc(Br)ccc2o1 [Compound 39]
1: Phytotoxicity corn (corn [1]; dose 5 g ai/a) | Phytotoxicity wheat (wheat [5]; dose 5 g ai/a) | Phytotoxicity corn (corn [8]; dose 5 g ai/a) | Phytotoxicity soybean (soybean [11]; dose 5 g ai/a) | Phytotoxicity soybean (soybean [14]; dose 2.5 g ai/a) | Phytotoxicity soybean (soybean [14]; dose 5 g ai/a)
2 (40%-less than 60%): Herbicidal Effect Flat sedge ([6]; dose 2.5 g ai/a)
3 (60%-less than 80%): Herbicidal Effect Flat sedge ([6]; dose 5 g ai/a) | Herbicidal Effect Japanese bulrush ([10]; dose 2.5 g ai/a)
4 (80%-less than 100%): Herbicidal Effect southern crabgrass (southern crabgrass; dose 2.5 g ai/a) | Herbicidal Effect southern crabgrass ([9]; dose 2.5 g ai/a) | Herbicidal Effect Japanese bulrush ([10]; dose 5 g ai/a) | Herbicidal Effect velvetleaf (velvetleaf; dose 2.5 g ai/a) | Herbicidal Effect velvetleaf ([15]; dose 2.5 g ai/a)
5 (100%): Herbicidal Effect common purslane ([2]; dose 2.5 g ai/a) | Herbicidal Effect common purslane ([2]; dose 5 g ai/a) | Herbicidal Effect Monochoria vaginalis ([3]; dose 2.5 g ai/a) | Herbicidal Effect Monochoria vaginalis ([3]; dose 5 g ai/a) | Herbicidal Effect slender amaranth ([4]; dose 2.5 g ai/a) | Herbicidal Effect slender amaranth ([4]; dose 5 g ai/a) | Herbicidal Effect southern crabgrass (southern crabgrass; dose 5 g ai/a) | Herbicidal Effect slender amaranth (slender amaranth; dose 2.5 g ai/a) | Herbicidal Effect slender amaranth (slender amaranth; dose 5 g ai/a) | Herbicidal Effect common lambsquaters ([7]; dose 2.5 g ai/a) | Herbicidal Effect common lambsquaters ([7]; dose 5 g ai/a) | Herbicidal Effect common purslane (common purslane; dose 2.5 g ai/a) | Herbicidal Effect common purslane (common purslane; dose 5 g ai/a) | Herbicidal Effect southern crabgrass ([9]; dose 5 g ai/a) | Herbicidal Effect Barnyard grass ([12]; dose 2.5 g ai/a) | Herbicidal Effect Barnyard grass ([12]; dose 5 g ai/a) | Herbicidal Effect Common lambsquatters (common lambsquaters; dose 2.5 g ai/a) | Herbicidal Effect Common lambsquatters (common lambsquaters; dose 5 g ai/a) | Herbicidal Effect velvetleaf (velvetleaf; dose 5 g ai/a) | Herbicidal Effect velvetleaf ([15]; dose 5 g ai/a)
0: Phytotoxicity corn (corn [1]; dose 2.5 g ai/a) | Phytotoxicity Rice plant (rice plant; dose 2.5 g ai/a) | Phytotoxicity Rice plant (rice plant; dose 5 g ai/a) | Phytotoxicity wheat (wheat [5]; dose 2.5 g ai/a) | Phytotoxicity corn (corn [8]; dose 2.5 g ai/a) | Phytotoxicity soybean (soybean [11]; dose 2.5 g ai/a) | Phytotoxicity wheat (wheat [13]; dose 2.5 g ai/a) | Phytotoxicity wheat (wheat [13]; dose 5 g ai/a)

COCC(=Cc1cccc(C(F)(F)F)c1)c1nc2cc(C(F)(F)F)ccc2o1 [Compound 52]
4 (80%-less than 100%): Herbicidal Effect Flat sedge ([6]; dose 5 g ai/a) | Herbicidal Effect Japanese bulrush ([10]; dose 2.5 g ai/a)
3 (60%-less than 80%): Herbicidal Effect Flat sedge ([6]; dose 2.5 g ai/a)
2: Phytotoxicity soybean (soybean [14]; dose 5 g ai/a)
5 (100%): Herbicidal Effect common purslane ([2]; dose 2.5 g ai/a) | Herbicidal Effect common purslane ([2]; dose 5 g ai/a) | Herbicidal Effect Monochoria vaginalis ([3]; dose 2.5 g ai/a) | Herbicidal Effect Monochoria vaginalis ([3]; dose 5 g ai/a) | Herbicidal Effect slender amaranth ([4]; dose 2.5 g ai/a) | Herbicidal Effect slender amaranth ([4]; dose 5 g ai/a) | Herbicidal Effect southern crabgrass (southern crabgrass; dose 2.5 g ai/a) | Herbicidal Effect southern crabgrass (southern crabgrass; dose 5 g ai/a) | Herbicidal Effect slender amaranth (slender amaranth; dose 2.5 g ai/a) | Herbicidal Effect slender amaranth (slender amaranth; dose 5 g ai/a) | Herbicidal Effect common lambsquaters ([7]; dose 2.5 g ai/a) | Herbicidal Effect common lambsquaters ([7]; dose 5 g ai/a) | Herbicidal Effect common purslane (common purslane; dose 2.5 g ai/a) | Herbicidal Effect common purslane (common purslane; dose 5 g ai/a) | Herbicidal Effect southern crabgrass ([9]; dose 2.5 g ai/a) | Herbicidal Effect southern crabgrass ([9]; dose 5 g ai/a) | Herbicidal Effect Japanese bulrush ([10]; dose 5 g ai/a) | Herbicidal Effect Barnyard grass ([12]; dose 2.5 g ai/a) | Herbicidal Effect Barnyard grass ([12]; dose 5 g ai/a) | Herbicidal Effect Common lambsquatters (common lambsquaters; dose 2.5 g ai/a) | Herbicidal Effect Common lambsquatters (common lambsquaters; dose 5 g ai/a) | Herbicidal Effect velvetleaf (velvetleaf; dose 2.5 g ai/a) | Herbicidal Effect velvetleaf (velvetleaf; dose 5 g ai/a) | Herbicidal Effect velvetleaf ([15]; dose 2.5 g ai/a) | Herbicidal Effect velvetleaf ([15]; dose 5 g ai/a)
1: Phytotoxicity corn (corn [1]; dose 2.5 g ai/a) | Phytotoxicity corn (corn [1]; dose 5 g ai/a) | Phytotoxicity Rice plant (rice plant; dose 5 g ai/a) | Phytotoxicity wheat (wheat [5]; dose 2.5 g ai/a) | Phytotoxicity wheat (wheat [5]; dose 5 g ai/a) | Phytotoxicity corn (corn [8]; dose 2.5 g ai/a) | Phytotoxicity corn (corn [8]; dose 5 g ai/a) | Phytotoxicity soybean (soybean [11]; dose 5 g ai/a) | Phytotoxicity wheat (wheat [13]; dose 2.5 g ai/a) | Phytotoxicity wheat (wheat [13]; dose 5 g ai/a) | Phytotoxicity soybean (soybean [14]; dose 2.5 g ai/a)
0: Phytotoxicity Rice plant (rice plant; dose 2.5 g ai/a) | Phytotoxicity soybean (soybean [11]; dose 2.5 g ai/a)

COCC(=Cc1ccc(Cl)c(C(F)(F)F)c1)c1nc2cc(Cl)ccc2o1 [Compound 9]
2 (40%-less than 60%): Herbicidal Effect Flat sedge ([6]; dose 2.5 g ai/a)
0: Phytotoxicity Rice plant (rice plant; dose 2.5 g ai/a) | Phytotoxicity Rice plant (rice plant; dose 5 g ai/a) | Phytotoxicity soybean (soybean [11]; dose 2.5 g ai/a) | Phytotoxicity soybean (soybean [11]; dose 5 g ai/a) | Phytotoxicity wheat (wheat [13]; dose 2.5 g ai/a) | Phytotoxicity soybean (soybean [14]; dose 2.5 g ai/a)
4 (80%-less than 100%): Herbicidal Effect Japanese bulrush ([10]; dose 5 g ai/a) | Herbicidal Effect Barnyard grass ([12]; dose 2.5 g ai/a) | Herbicidal Effect velvetleaf (velvetleaf; dose 2.5 g ai/a) | Herbicidal Effect velvetleaf ([15]; dose 2.5 g ai/a)
1: Phytotoxicity corn (corn [1]; dose 2.5 g ai/a) | Phytotoxicity corn (corn [1]; dose 5 g ai/a) | Phytotoxicity wheat (wheat [5]; dose 2.5 g ai/a) | Phytotoxicity wheat (wheat [5]; dose 5 g ai/a) | Phytotoxicity corn (corn [8]; dose 2.5 g ai/a) | Phytotoxicity corn (corn [8]; dose 5 g ai/a) | Phytotoxicity wheat (wheat [13]; dose 5 g ai/a) | Phytotoxicity soybean (soybean [14]; dose 5 g ai/a)
5 (100%): Herbicidal Effect common purslane ([2]; dose 2.5 g ai/a) | Herbicidal Effect common purslane ([2]; dose 5 g ai/a) | Herbicidal Effect Monochoria vaginalis ([3]; dose 2.5 g ai/a) | Herbicidal Effect Monochoria vaginalis ([3]; dose 5 g ai/a) | Herbicidal Effect slender amaranth ([4]; dose 2.5 g ai/a) | Herbicidal Effect slender amaranth ([4]; dose 5 g ai/a) | Herbicidal Effect southern crabgrass (southern crabgrass; dose 2.5 g ai/a) | Herbicidal Effect southern crabgrass (southern crabgrass; dose 5 g ai/a) | Herbicidal Effect slender amaranth (slender amaranth; dose 2.5 g ai/a) | Herbicidal Effect slender amaranth (slender amaranth; dose 5 g ai/a) | Herbicidal Effect common lambsquaters ([7]; dose 2.5 g ai/a) | Herbicidal Effect common lambsquaters ([7]; dose 5 g ai/a) | Herbicidal Effect common purslane (common purslane; dose 2.5 g ai/a) | Herbicidal Effect common purslane (common purslane; dose 5 g ai/a) | Herbicidal Effect southern crabgrass ([9]; dose 2.5 g ai/a) | Herbicidal Effect southern crabgrass ([9]; dose 5 g ai/a) | Herbicidal Effect Barnyard grass ([12]; dose 5 g ai/a) | Herbicidal Effect Common lambsquatters (common lambsquaters; dose 2.5 g ai/a) | Herbicidal Effect Common lambsquatters (common lambsquaters; dose 5 g ai/a) | Herbicidal Effect velvetleaf (velvetleaf; dose 5 g ai/a) | Herbicidal Effect velvetleaf ([15]; dose 5 g ai/a)
3 (60%-less than 80%): Herbicidal Effect Flat sedge ([6]; dose 5 g ai/a) | Herbicidal Effect Japanese bulrush ([10]; dose 2.5 g ai/a)
